US11059773B2, “Type-B fenolamine crystal form, preparation method, composition and use thereof” (INSTITUTE OF MATARIA MEDICA, CHINESE ACADEMY OF MEDICAL …, priority 2017, dated 2021)
“Also recorded” adds a separate entry of the source.

Experiments:
[1] = Dissolution of type-B fenolamine crystal form in six solvent systems; type: physicochemical
Description: The solubility was evaluated by using a type-B fenolamine crystal form sample (fenolamine:ethanol=1:0.2) having a crystallized ethanol content of 2.0%.
The solvent systems were selected by: (1) referring to solvent systems used in the dissolution determination method in the Appendix of the Pharmacopoeia; (2) referring to the digestive solution pH in various organs of an organism; (3) improving the solubility of water-insoluble drugs. Based the above three references, solvent systems with six pH values were set up: a 0.1 N hydrochloric acid solution with pH 1.2; an acetate buffer solution with pH 4.5; a phosphate buffer solution with pH 6.5; an water solution with pH 6.7; a 0.2% SDS solution with pH 7.0; a 0.5% SDS solution with pH 7.3.
Measurement was carried out according to the solubility determination method (“Guidelines for Dissolution Test Technique of General Oral Solid Preparations (Draft)”, October 2012, the Drug Review Center). With the percentage of the samples dissolved by mass calculated from the absorbance data, solubility curves were respectively drawn with time as abscissa and dissolved contents as ordinate and shown in FIG. 10.

[2] = Stability of type-B fenolamine crystal form solid (influencing factors: high temperature, high humidity, illumination); type: physicochemical; settings: starting ethanol content 2.58%
Description: Type-B fenolamine crystal form samples (having a crystallized ethanol content of 2.58%) were placed in open clean watch glasses, and kept under conditions of a high temperature of 60° C., a high temperature of 40° C., and 25° C., a relative humidity of 90%±5%, and illumination at 4500 lx±500 lx for 10 days, and samples were taken on Days 0, 5, and 10. Powder X-ray diffraction (with a resultant pattern consistent to that in FIG. 1) and gas chromatography means were used for analysis.

COc1ccc(OC)c(/C(=C\c2ccc(O)c(OC)c2)C(=O)NCCc2ccc(O)cc2)c1 [type-B fenolamine crystal form, trans-2-(2,5-dimethoxyphenyl)-3-(4-hydroxy-3-methoxyphenyl)-N-(4-hydroxyphenylethyl) acrylamide]
Dissolution (percentage of sample dissolved by mass) ([1]; 0.1N hydrochloric acid pH 1.2, 5 min): 0.00%
Dissolution (percentage of sample dissolved by mass) ([1]; 0.1N hydrochloric acid pH 1.2, 15 min): 0.00%
Dissolution (percentage of sample dissolved by mass) ([1]; 0.1N hydrochloric acid pH 1.2, 30 min): 2.35%
Dissolution (percentage of sample dissolved by mass) ([1]; 0.1N hydrochloric acid pH 1.2, 60 min): 5.75%
Dissolution (percentage of sample dissolved by mass) ([1]; 0.1N hydrochloric acid pH 1.2, 120 min): 11.42%
Dissolution (percentage of sample dissolved by mass) ([1]; 0.1N hydrochloric acid pH 1.2, 180 min): 14.07%
Dissolution (percentage of sample dissolved by mass) ([1]; 0.1N hydrochloric acid pH 1.2, 240 min): 18.54%
Dissolution (percentage of sample dissolved by mass) ([1]; 0.1N hydrochloric acid pH 1.2, 300 min): 20.04%
Dissolution (percentage of sample dissolved by mass) ([1]; 0.1N hydrochloric acid pH 1.2, 360 min): 23.69%
Dissolution (percentage of sample dissolved by mass) ([1]; 0.1N hydrochloric acid pH 1.2, 420 min): 25.07%
Dissolution (percentage of sample dissolved by mass) ([1]; 0.2% SDS pH 7.0, 5 min): 21.57%
Dissolution (percentage of sample dissolved by mass) ([1]; 0.2% SDS pH 7.0, 15 min): 32.50%
Dissolution (percentage of sample dissolved by mass) ([1]; 0.2% SDS pH 7.0, 30 min): 42.43%
Dissolution (percentage of sample dissolved by mass) ([1]; 0.2% SDS pH 7.0, 60 min): 59.66%
Dissolution (percentage of sample dissolved by mass) ([1]; 0.2% SDS pH 7.0, 120 min): 91.98%
Dissolution (percentage of sample dissolved by mass) ([1]; 0.2% SDS pH 7.0, 180 min): 92.35%
Dissolution (percentage of sample dissolved by mass) ([1]; 0.2% SDS pH 7.0, 240 min): 95.75%
Dissolution (percentage of sample dissolved by mass) ([1]; 0.2% SDS pH 7.0, 300 min): 95.82%
Dissolution (percentage of sample dissolved by mass) ([1]; 0.2% SDS pH 7.0, 360 min): 95.90%
Dissolution (percentage of sample dissolved by mass) ([1]; 0.2% SDS pH 7.0, 420 min): 95.93%
Dissolution (percentage of sample dissolved by mass) ([1]; 0.5% SDS pH 7.3, 5 min): 35.04%
Dissolution (percentage of sample dissolved by mass) ([1]; 0.5% SDS pH 7.3, 15 min): 55.30%
Dissolution (percentage of sample dissolved by mass) ([1]; 0.5% SDS pH 7.3, 30 min): 73.32%
Dissolution (percentage of sample dissolved by mass) ([1]; 0.5% SDS pH 7.3, 60 min): 86.90%
Dissolution (percentage of sample dissolved by mass) ([1]; 0.5% SDS pH 7.3, 120 min): 97.35%
Dissolution (percentage of sample dissolved by mass) ([1]; 0.5% SDS pH 7.3, 180 min): 97.69%
Dissolution (percentage of sample dissolved by mass) ([1]; 0.5% SDS pH 7.3, 240 min): 98.40%
Dissolution (percentage of sample dissolved by mass) ([1]; 0.5% SDS pH 7.3, 300 min): 98.47%
Dissolution (percentage of sample dissolved by mass) ([1]; 0.5% SDS pH 7.3, 360 min): 98.51%
Dissolution (percentage of sample dissolved by mass) ([1]; 0.5% SDS pH 7.3, 420 min): 100.00%
Dissolution (percentage of sample dissolved by mass) ([1]; Acetate buffer pH 4.5, 5 min): 0.00%
Dissolution (percentage of sample dissolved by mass) ([1]; Acetate buffer pH 4.5, 15 min): 0.00%
Dissolution (percentage of sample dissolved by mass) ([1]; Acetate buffer pH 4.5, 30 min): 0.49%
Dissolution (percentage of sample dissolved by mass) ([1]; Acetate buffer pH 4.5, 60 min): 2.57%
Dissolution (percentage of sample dissolved by mass) ([1]; Acetate buffer pH 4.5, 120 min): 7.54%
Dissolution (percentage of sample dissolved by mass) ([1]; Acetate buffer pH 4.5, 180 min): 11.34%
Dissolution (percentage of sample dissolved by mass) ([1]; Acetate buffer pH 4.5, 240 min): 15.82%
Dissolution (percentage of sample dissolved by mass) ([1]; Acetate buffer pH 4.5, 300 min): 19.51%
Dissolution (percentage of sample dissolved by mass) ([1]; Acetate buffer pH 4.5, 360 min): 20.15%
Dissolution (percentage of sample dissolved by mass) ([1]; Acetate buffer pH 4.5, 420 min): 20.71%
Dissolution (percentage of sample dissolved by mass) ([1]; Phosphate buffer pH 6.5, 5 min): 49.51%
Dissolution (percentage of sample dissolved by mass) ([1]; Phosphate buffer pH 6.5, 15 min): 49.81%
Dissolution (percentage of sample dissolved by mass) ([1]; Phosphate buffer pH 6.5, 30 min): 49.89%
Dissolution (percentage of sample dissolved by mass) ([1]; Phosphate buffer pH 6.5, 60 min): 49.96%
Dissolution (percentage of sample dissolved by mass) ([1]; Phosphate buffer pH 6.5, 120 min): 51.08%
Dissolution (percentage of sample dissolved by mass) ([1]; Phosphate buffer pH 6.5, 180 min): 51.72%
Dissolution (percentage of sample dissolved by mass) ([1]; Phosphate buffer pH 6.5, 240 min): 51.87%
Dissolution (percentage of sample dissolved by mass) ([1]; Phosphate buffer pH 6.5, 300 min): 53.32%
Dissolution (percentage of sample dissolved by mass) ([1]; Phosphate buffer pH 6.5, 360 min): 53.40%
Dissolution (percentage of sample dissolved by mass) ([1]; Phosphate buffer pH 6.5, 420 min): 53.47%
Dissolution (percentage of sample dissolved by mass) ([1]; Water pH 6.7, 5 min): 0.00%
Dissolution (percentage of sample dissolved by mass) ([1]; Water pH 6.7, 15 min): 0.34%
Dissolution (percentage of sample dissolved by mass) ([1]; Water pH 6.7, 30 min): 2.01%
Dissolution (percentage of sample dissolved by mass) ([1]; Water pH 6.7, 60 min): 5.26%
Dissolution (percentage of sample dissolved by mass) ([1]; Water pH 6.7, 120 min): 11.42%
Dissolution (percentage of sample dissolved by mass) ([1]; Water pH 6.7, 180 min): 20.22%
Dissolution (percentage of sample dissolved by mass) ([1]; Water pH 6.7, 240 min): 21.94%
Dissolution (percentage of sample dissolved by mass) ([1]; Water pH 6.7, 300 min): 26.04%
Dissolution (percentage of sample dissolved by mass) ([1]; Water pH 6.7, 360 min): 28.96%
Dissolution (percentage of sample dissolved by mass) ([1]; Water pH 6.7, 420 min): 32.13%
Solubility in six solvent systems imitating different pH environments in human body (in words) ([1]; compared with type-F crystal form): good solubility; also recorded: superior to the type-F crystal form
Stability of the crystal form (powder X-ray diffraction and gas chromatography) ([2]; 60° C., 40° C., 25° C. with RH 90%±5%, 4500 lx±500 lx, 10 days): stable under conditions of high temperature, high humidity and light illumination
Crystallized ethanol content after storage ([2]; 10 days at high temperature): about 2.1%
